BindingDB's records for doi:10.1016/j.bmcl.2012.09.081 (2012)

Experiment: Inhibition of tobacco hornworm V-ATPase c subunit

Which IC50 does the source give for `CNC(=O)O[C@@H](CC(C)C)c1nc([C@H]2OC(=O)/C(C)=C/C/C(C)=C/[C@@H](OC(=O)c3ccc(C4(C(F)(F)F)N=N4)cc3)[C@@H](C)\C=C(C)/C=C(C)\C=C\[C@@H](OC(=O)c3ccc(C4(C(F)(F)F)N=N4)cc3)[C@H](C)[C@H](OC)/C(C)=C/C=C/[C@@H]2C)cs1` here?
Its IC50 is 600 nM.
